Measured values as given in PubChem BioAssay AID192 (DTP/NCI, 2004).
Several values for one entry are separate records, joined by “and”; a condition that tells them apart may be missing. Equal values may be shown once. Inconclusive results and toxic doses are left out. The calls were made as follows: active = survival T/C of 150% or more; inactive = T/C below 125% in these data.

Test system: BDF1 mice, B16 melanoma ip, median survival T/C
Assay: NCI In Vivo Anticancer Drug Screen. Data for tumor model B16 Melanoma (intraperitoneal) in B6D2F1 (BDF1) mice
Conditions: endpoint: median survival time, higher = longer survival
Experimental: The antitumor activity of compounds was measured in mice bearing transplantable tumors. Survival or tumor size were measured and the results are expressed as the measurement made in the treated group (T) divided by the measurement made in the vehicle treated control group (C). The tumor model used in this assay is B16 Melanoma (intraperitoneal) in B6D2F1 (BDF1) mice

[1] = dose: 25.0 mg/kg/injection, schedule: Q01DX009 (ip), vehicle: saline
[2] = dose: 50.0 mg/kg/injection, schedule: Q01DX009 (ip), vehicle: saline
[3] = dose: 100.0 mg/kg/injection, schedule: Q01DX009 (ip), vehicle: saline
[4] = dose: 3.12 mg/kg/injection, schedule: Q01DX009 (ip), vehicle: saline
[5] = dose: 6.25 mg/kg/injection, schedule: Q01DX009 (ip), vehicle: saline
[6] = dose: 12.5 mg/kg/injection, schedule: Q01DX009 (ip), vehicle: saline
[7] = dose: 100.0 mg/kg/injection, schedule: Q04DX003 (ip), vehicle: Klucel (hydroxypropylcellulose) (HPC)
[8] = dose: 12.5 mg/kg/injection, schedule: Q01DX009 (ip), vehicle: Klucel (hydroxypropylcellulose) (HPC)
[9] = dose: 25.0 mg/kg/injection, schedule: Q01DX009 (ip), vehicle: Klucel (hydroxypropylcellulose) (HPC)
[10] = dose: 12.5 mg/kg/injection, schedule: Q01DX009 (ip), vehicle: saline with Tween-80
[11] = dose: 25.0 mg/kg/injection, schedule: Q01DX009 (ip), vehicle: saline with Tween-80
[12] = dose: 100.0 mg/kg/injection, schedule: Q01DX009 (ip), vehicle: saline with Tween-80
[13] = dose: 200.0 mg/kg/injection, schedule: Q01DX009 (ip), vehicle: saline with Tween-80
[14] = dose: 50.0 mg/kg/injection, schedule: Q01DX009 (ip), vehicle: saline with Tween-80
[15] = dose: 100.0 mg/kg/injection, schedule: Q01DX009 (ip), vehicle: Klucel (hydroxypropylcellulose) (HPC)
[16] = dose: 200.0 mg/kg/injection, schedule: Q01DX009 (ip), vehicle: Klucel (hydroxypropylcellulose) (HPC)
[17] = dose: 400.0 mg/kg/injection, schedule: Q01DX009 (ip), vehicle: Klucel (hydroxypropylcellulose) (HPC)
[18] = dose: 50.0 mg/kg/injection, schedule: Q04DX003 (ip), vehicle: saline with Tween-80

Measured: T/C

CCN(CC)CCNC1CCCCC1
inactive: [1] 102 % of control | [2] 112 % of control | [3] 98 % of control

CN1CCN(C(c2ccccc2)c2ccc(Cl)cc2)CC1 (stereo not drawn)
inactive: [4] 105 % of control | [5] 105 % of control | [6] 102 % of control | [1] 102 % of control | [2] 100 % of control

CN1CCC=C(CN2c3ccccc3Sc3ccc(Cl)cc32)C1
inactive: [6] 95 % of control | [1] 94 % of control

CC(C)c1cccc(C(C)C)c1OC(=O)Nc1ccccc1Cl
inactive: [7] 100 % of control | dose: 200.0 mg/kg/injection, schedule: Q04DX003 (ip), vehicle: Klucel (hydroxypropylcellulose) (HPC) 96 % of control

CC(NC(=O)OCc1ccccc1)C(=O)O (stereo not drawn)
inactive: dose: 3.12 mg/kg/injection, schedule: Q01DX009 (ip), vehicle: Klucel (hydroxypropylcellulose) (HPC) 97 % of control | dose: 6.25 mg/kg/injection, schedule: Q01DX009 (ip), vehicle: Klucel (hydroxypropylcellulose) (HPC) 88 % of control | [8] 94 % of control | [9] 88 % of control | [7] 88 % of control

Nc1nc2n[nH]nc2c(=O)[nH]1
inactive: [1] 108 % of control | [2] 108 % of control | [3] 113 % of control | dose: 200.0 mg/kg/injection, schedule: Q01DX009 (ip), vehicle: saline 111 % of control

CCN(CC)Cc1cc2[nH]c3c4ccc(Cl)cc4ncc3c2cc1OC
inactive: dose: 6.25 mg/kg/injection, schedule: Q01DX009 (ip), vehicle: saline with Tween-80 95 % of control | [10] 98 % of control | [11] 98 % of control

CC1=C(/C=C/C(C)=C/C=C/C(C)=C/C(=O)O)C(C)(C)CCC1
inactive: dose: 0.5 mg/kg/injection, schedule: Q01DX009 (ip), vehicle: saline with Tween-80 98 % of control | dose: 1.0 mg/kg/injection, schedule: Q01DX009 (ip), vehicle: saline with Tween-80 90 % of control | dose: 8.0 mg/kg/injection, schedule: Q01DX009 (ip), vehicle: saline with Tween-80 92 % of control | dose: 16.0 mg/kg/injection, schedule: Q01DX009 (ip), vehicle: saline with Tween-80 86 % of control and 88 % of control (2×) | dose: 32.0 mg/kg/injection, schedule: Q01DX009 (ip), vehicle: saline with Tween-80 86 % of control and 94 % of control | dose: 64.0 mg/kg/injection, schedule: Q01DX009 (ip), vehicle: saline with Tween-80 93 % of control

COC(=O)C(C)CC(C)(C=O)OC (stereo not drawn)
inactive: [12] 97 % of control | [13] 100 % of control | dose: 400.0 mg/kg/injection, schedule: Q01DX009 (ip), vehicle: saline with Tween-80 90 % of control

CCOC(=O)c1ccc(NS(=O)c2ccccc2)cc1 (stereo not drawn)
inactive: [14] 105 % of control | [12] 91 % of control

Cc1ccc(S(=O)(=O)[O][Pb]([CH3])([CH3])[CH3])cc1
inactive: dose: 0.18 mg/kg/injection, schedule: Q01DX009 (ip), vehicle: saline 97 % of control | dose: 0.37 mg/kg/injection, schedule: Q01DX009 (ip), vehicle: saline 92 % of control | dose: 0.75 mg/kg/injection, schedule: Q01DX009 (ip), vehicle: saline 104 % of control | dose: 1.5 mg/kg/injection, schedule: Q01DX009 (ip), vehicle: saline 97 % of control

COc1cc([N+](=O)[O-])ccc1NC(=O)Nc1ccc(Cl)cc1
inactive: [14] 93 % of control | [12] 91 % of control | [13] 101 % of control

O=S(=O)(O)c1ccc2cccc(N=Nc3c(O)ccc4ccccc34)c2c1
inactive: [10] 105 % of control | [11] 102 % of control | [14] 91 % of control

COc1cc([C@@H]2c3cc4c(c(O)c3C[C@H]3COC(=O)[C@@H]32)OCO4)cc(OC)c1OC
inactive: dose: 0.12 mg/kg/injection, schedule: Q01DX009 (ip), vehicle: suspension in saline 100 % of control | dose: 0.25 mg/kg/injection, schedule: Q01DX009 (ip), vehicle: suspension in saline 102 % of control | dose: 0.5 mg/kg/injection, schedule: Q01DX009 (ip), vehicle: saline 109 % of control | dose: 0.5 mg/kg/injection, schedule: Q01DX009 (ip), vehicle: suspension in saline 120 % of control | dose: 1.0 mg/kg/injection, schedule: Q01DX009 (ip), vehicle: saline 114 % of control | dose: 1.0 mg/kg/injection, schedule: Q01DX009 (ip), vehicle: suspension in saline 121 % of control

CN1CCN=C(c2ccccc2)c2cc(Cl)ccc21
inactive: [5] 117 % of control | [6] 117 % of control | [1] 115 % of control | [2] 106 % of control | [3] 100 % of control

CC(C)N(Cc1ccccc1)CC(O)c1ccc(Cl)cc1 (stereo not drawn)
inactive: [6] 94 % of control | [1] 86 % of control | [2] 101 % of control

Cc1cccc(NC(=O)c2ccccc2C(=O)O)c1C
inactive: [15] 94 % of control | [16] 94 % of control | [17] 97 % of control

CN(C)C(=O)c1cccc(NC(=O)NCc2cccc(N3C(N)=NC(N)=NC3(C)C)c2)c1
inactive: [6] 107 % of control | [1] 117 % of control | [2] 102 % of control

COc1ccccc1N1C(=O)C=CC1=O
inactive: dose: 0.63 mg/kg/injection, schedule: Q01DX009 (ip), vehicle: saline with Tween-80 93 % of control | dose: 1.25 mg/kg/injection, schedule: Q01DX009 (ip), vehicle: saline with Tween-80 89 % of control | dose: 2.5 mg/kg/injection, schedule: Q01DX009 (ip), vehicle: saline with Tween-80 87 % of control

Cc1ccc(S(=O)(=O)Nc2ncc([N+](=O)[O-])s2)cc1
inactive: dose: 12.5 mg/kg/injection, schedule: Q04DX003 (ip), vehicle: saline with Tween-80 102 % of control | dose: 25.0 mg/kg/injection, schedule: Q04DX003 (ip), vehicle: saline with Tween-80 109 % of control | [18] 109 % of control

CC(=O)OC12CC[N+]3(C)CCCCC3C1=Nc1ccccc12 (stereo not drawn)
inactive: [8] 109 % of control | [9] 104 % of control

CC1CCC2(C(=O)O)CCC3(C)C(=CCC4C5(C)CCC(O)C(C)(C)C5CCC43C)C2C1C (stereo not drawn)
inactive: [15] 98 % of control | [16] 91 % of control

CCCCCC(=O)c1ccc(OCCCN2CCN(C(=O)OCC)CC2)cc1
inactive: [12] 98 % of control | [13] 87 % of control

COc1cc(NS(C)(=O)=O)ccc1Nc1c2ccc([N+](=O)[O-])cc2nc2c(C)cccc12
inactive: dose: 0.08 mg/kg/injection, schedule: Q01DX009 (ip), vehicle: saline with Tween-80 105 % of control | dose: 0.15 mg/kg/injection, schedule: Q01DX009 (ip), vehicle: saline with Tween-80 107 % of control | dose: 0.6 mg/kg/injection, schedule: Q01DX009 (ip), vehicle: saline with Tween-80 122 % of control

O=C(O)C(CSC(c1ccccc1)(c1ccccc1)c1ccccc1)N=Cc1cccs1 (stereo not drawn)
inactive: [6] 117 % of control | [1] 122 % of control

O=C(NNCc1ccccc1)C(O)C(O)C(O)CO (stereo not drawn)
inactive: [9] 95 % of control | dose: 50.0 mg/kg/injection, schedule: Q01DX009 (ip), vehicle: Klucel (hydroxypropylcellulose) (HPC) 95 % of control | [15] 92 % of control | [16] 100 % of control | [17] 95 % of control

COc1ccc(Oc2cc(CC3c4cc(OC)c(OC)cc4CCN3C)c([N+](=O)[O-])cc2OC)cc1OC (stereo not drawn)
inactive: [6] 100 % of control | [1] 100 % of control | [2] 98 % of control

Cc1ccc(CO)cc1C
inactive: [18] 100 % of control | dose: 100.0 mg/kg/injection, schedule: Q04DX003 (ip), vehicle: saline with Tween-80 102 % of control | dose: 200.0 mg/kg/injection, schedule: Q04DX003 (ip), vehicle: saline with Tween-80 104 % of control

Nc1nc2c(ncn2C2OC(CO)C(O)C2N)c(=O)[nH]1 (stereo not drawn)
inactive: [4] 95 % of control and 110 % of control | [5] 101 % of control and 102 % of control and 104 % of control | [6] 106 % of control and 107 % of control and 110 % of control | dose: 25.0 mg/kg/injection, schedule: Q01DX005 (ip), vehicle: saline with Tween-80 104 % of control | [1] 89 % of control and 101 % of control and 112 % of control | dose: 35.0 mg/kg/injection, schedule: Q01DX005 (ip), vehicle: saline with Tween-80 104 % of control | [2] 89 % of control and 101 % of control | dose: 55.0 mg/kg/injection, schedule: Q01DX005 (ip), vehicle: saline with Tween-80 95 % of control | dose: 80.0 mg/kg/injection, schedule: Q01DX005 (ip), vehicle: saline with Tween-80 104 % of control | [3] 96 % of control
